Source: patent US20250231108A1, “TR[…]” (SUMITOMO CHEMICAL COMPANY, LIMITED, priority 2022, published 2025)

Tested on: TA1537
Test: Ames test (Ames MPF microplate format) without metabolic activation, toxicity to tester assessed by transparency index T from plate image
Settings: for transparency index T: TA1537, no metabolic activation, average of three assessment plates, FIG. 14, T smaller than 1 means high transparency (cells dead)
Experimental: A tester (bacterium having amino acid-requiring mutation, for example, Salmonella typhimurium: a TA100 strain, a TA98 strain, a TA1535 strain, or a TA1537 strain, Escherichia coli: a WP2uvrA strain or the like) that is used is inoculated in 60 mL of Nutrient broth medium, and is shaken and cultured at 37° C. for 9 to 10 hours to be proliferated.
The test substance prepared in the step 2A is dissolved or suspended in an adequate medium, and the resultant solution is diluted by using the medium in staged to prepare concentration series of the test substance solution. In a case where the same test substance is assessed with six concentrations different from each other, six test substance solutions having concentrations different from each other are prepared.
The medium used in preparation of the test substance solution, the concentration series of the test substance solution, and the solution of the positive control compound (collectively referred to as “test substance solution or the like”) are put into individual wells of a 24-well plate (a plate having 24 wells) by 10 μL.
0.175 to 0.7 mL of the tester culture solution (typically at a concentration exceeding 1×10^9 cells/mL) and 6.83 to 6.3 mL of a medium (minimal medium in which a carbon source is added and which is deficient in amino acid) are mixed. The resultant mixture is referred to as a preparation bacterial solution under conditions of the absence of metabolic activation. […]
Specifically, first, an angle θ1 between the centroid vector V1 and the first reference vector V2 and an angle θ2 between the centroid vector V1 and the second reference vector V3 are compared. In a case where the angle θ1 is equal to or smaller than the angle θ2, a transparency index T is calculated based on an expression (1). In a case where the angle θ2 is larger than the angle θ1, the transparency index T is calculated based on an expression (2). […]

ClCc1ccc(Cl)cc1 [4-chlorobenzyl chloride]
toxicity to the tester (cells) (TA1537, 1.95-2,000 μg/mL in DMSO, no metabolic activation, conclusion from transparency index T): toxic to the tester
transparency index T (section Se6, test substance 500 μg/mL): reduced
transparency index T (section Se7, test substance 2,000 μg/mL): reduced
